From ChEMBL document CHEMBL1909046, “DrugMatrix in vitro pharmacology data”
pIC50, pKi: −log10 of the molar value.

Key:
[1] = molecular target: Tyrosine-protein kinase Fyn (Homo sapiens, UniProt P06241); test: biochemical; format: cell-based, Insect cells;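 note: enzymatic inhibition of Fyn kinase activity measured with Poly(Glu:Tyr) as the phosphorylation substrate; in other assays of this panel Not Active means under 50% inhibition at 10 µM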
[2] = DRUGMATRIX: GABAA, Muscimol, Central radioligand binding (ligand: [3H] Muscimol); format: cell membranes, Rattus norvegicus, Wistar, Brain, Membrane; settings: Not Active = under 50% inhibition at 10 µM
Substance-K receptor = molecular target: T1, Substance-K receptor (Homo sapiens, UniProt P21452); format: cell membranes, CHO, Membrane; settings: cho; note: in other assays of this panel Not Active means under 50% inhibition at 10 µM
T1 sequence (P21452 whole entry): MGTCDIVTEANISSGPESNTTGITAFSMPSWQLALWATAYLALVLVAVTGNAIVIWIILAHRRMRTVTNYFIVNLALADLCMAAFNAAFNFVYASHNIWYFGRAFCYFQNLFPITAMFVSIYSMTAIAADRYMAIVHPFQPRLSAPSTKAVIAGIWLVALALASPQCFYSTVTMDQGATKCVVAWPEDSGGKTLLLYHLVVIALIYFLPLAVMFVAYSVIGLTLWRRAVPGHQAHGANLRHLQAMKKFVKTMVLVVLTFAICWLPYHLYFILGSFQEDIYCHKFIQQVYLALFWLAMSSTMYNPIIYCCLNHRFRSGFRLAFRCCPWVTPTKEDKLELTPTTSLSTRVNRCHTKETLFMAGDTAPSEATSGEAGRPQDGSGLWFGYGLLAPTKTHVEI

Estrogen receptor = molecular target: T2, Estrogen receptor (Homo sapiens, UniProt P03372); settings: sf9; note: in other assays of this panel Not Active means under 50% inhibition at 10 µM
T2 sequence (P03372 whole entry): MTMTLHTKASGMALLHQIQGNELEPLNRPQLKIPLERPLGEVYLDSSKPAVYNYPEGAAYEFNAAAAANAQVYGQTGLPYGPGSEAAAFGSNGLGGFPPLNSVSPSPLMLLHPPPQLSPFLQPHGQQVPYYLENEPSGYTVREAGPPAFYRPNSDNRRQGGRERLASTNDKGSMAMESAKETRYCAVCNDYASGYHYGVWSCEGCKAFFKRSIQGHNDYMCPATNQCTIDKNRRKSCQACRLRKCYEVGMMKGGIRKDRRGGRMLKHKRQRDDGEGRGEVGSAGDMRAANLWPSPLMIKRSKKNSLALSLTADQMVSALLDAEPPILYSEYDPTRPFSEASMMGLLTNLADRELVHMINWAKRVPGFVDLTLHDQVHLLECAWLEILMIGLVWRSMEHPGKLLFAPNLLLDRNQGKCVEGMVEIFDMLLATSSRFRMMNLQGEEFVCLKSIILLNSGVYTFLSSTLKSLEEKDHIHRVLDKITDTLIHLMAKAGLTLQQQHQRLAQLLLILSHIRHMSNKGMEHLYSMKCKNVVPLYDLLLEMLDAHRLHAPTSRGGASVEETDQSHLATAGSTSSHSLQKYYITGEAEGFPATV

Cytochrome P450 2A6 = molecular target: T3, Cytochrome P450 2A6 (Homo sapiens, UniProt P11509); settings: bti-tn-5b1-4; note: in other assays of this panel Not Active means under 50% inhibition at 10 µM
T3 sequence (P11509 whole entry): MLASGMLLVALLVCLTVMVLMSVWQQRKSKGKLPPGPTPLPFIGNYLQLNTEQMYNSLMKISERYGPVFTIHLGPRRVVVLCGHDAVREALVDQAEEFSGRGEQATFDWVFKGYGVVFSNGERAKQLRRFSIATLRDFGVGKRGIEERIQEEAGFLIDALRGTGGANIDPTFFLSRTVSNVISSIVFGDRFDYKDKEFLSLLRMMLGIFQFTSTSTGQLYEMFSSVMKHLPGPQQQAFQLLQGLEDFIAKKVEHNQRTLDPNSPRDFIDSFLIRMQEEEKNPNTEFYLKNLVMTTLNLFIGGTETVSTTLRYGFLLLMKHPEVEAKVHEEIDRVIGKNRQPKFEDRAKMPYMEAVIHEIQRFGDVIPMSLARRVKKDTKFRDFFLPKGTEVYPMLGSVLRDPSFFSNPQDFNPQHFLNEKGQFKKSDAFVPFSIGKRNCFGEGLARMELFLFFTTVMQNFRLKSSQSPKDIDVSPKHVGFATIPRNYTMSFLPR

[3] = molecular target: Beta-2 adrenergic receptor (Homo sapiens, UniProt P07550); test: DRUGMATRIX: Adrenergic beta2 radioligand binding (ligand: [3H] CGP-12177); format: cell membranes, CHO, Membrane; settings: Not Active = under 50% inhibition at 10 µM
[4] = DRUGMATRIX: beta-Lactamase enzyme inhibition (substrate: Nitrocefin); set-up: species or system Bacillus cereus; settings: Not Active = under 50% inhibition at 10 µM

Tyrosine-protein kinase Fyn, sequence (P06241 whole entry): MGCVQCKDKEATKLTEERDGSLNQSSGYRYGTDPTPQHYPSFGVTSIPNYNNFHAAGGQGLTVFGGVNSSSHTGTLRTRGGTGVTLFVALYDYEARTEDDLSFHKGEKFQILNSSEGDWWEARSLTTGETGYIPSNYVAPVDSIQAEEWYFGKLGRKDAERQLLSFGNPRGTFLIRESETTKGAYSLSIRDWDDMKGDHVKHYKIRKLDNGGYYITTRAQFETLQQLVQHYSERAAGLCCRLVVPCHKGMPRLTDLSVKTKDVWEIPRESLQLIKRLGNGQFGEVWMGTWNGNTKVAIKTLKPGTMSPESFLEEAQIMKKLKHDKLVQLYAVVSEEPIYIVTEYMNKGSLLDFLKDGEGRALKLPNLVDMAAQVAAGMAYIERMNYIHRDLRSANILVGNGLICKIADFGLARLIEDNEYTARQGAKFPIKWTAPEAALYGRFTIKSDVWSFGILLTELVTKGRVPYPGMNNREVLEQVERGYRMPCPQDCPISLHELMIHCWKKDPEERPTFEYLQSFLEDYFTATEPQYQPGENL

Compound | IC50 ([1]; insect cells) | IC50 [2] | Ki [2] | IC50 (Substance-K receptor) | IC50 (Estrogen receptor) | IC50 (Cytochrome P450 2A6) | Ki (Cytochrome P450 2A6) | IC50 ([3]; cho) | IC50 [4] | Ki [4] | Ki ([1]; insect cells) | Ki (Substance-K receptor) | Ki (Estrogen receptor) | Ki ([3]; cho) | pIC50 ([1]; read-out: IC50) | pIC50 ([3]; read-out: IC50) | pKi ([3]; read-out: Ki)
CC(=O)O[C@H]1C[C@@H]2CC[C@@H]3[C@H](CC[C@@]4(C)[C@H]3C[C@H]([N+]3(C)CCCCC3)[C@@H]4OC(C)=O)[C@@]2(C)C[C@@H]1N1CCCCC1.[Br-] [VECURONIUM BROMIDE] | Not Active | Not Active | Not Active | Not Active | Not Active | Not Active | Not Active | Not Active | Not Active | Not Active | – | – | – | – | – | – | –
Nc1ccc(S(=O)(=O)Nc2nccs2)cc1 [SULFATHIAZOLE] | Not Active | Not Active | Not Active | Not Active | Not Active | Not Active | Not Active | Not Active | Not Active | Not Active | – | – | – | – | – | – | –
C#CCN(C)[C@H](C)Cc1ccccc1 [SELEGILINE] | Not Active | Not Active | Not Active | Not Active | Not Active | Not Active | Not Active | Not Active | Not Active | Not Active | – | – | – | – | – | – | –
COc1cc(N)nc2[nH]c(-c3ccc(F)cc3)c(-c3ccncc3)c12 | Not Active | Not Active | Not Active | Not Active | Not Active | Not Active | Not Active | Not Active | Not Active | Not Active | – | – | – | – | – | – | –
THIMEROSAL | Not Active | Not Active | Not Active | Not Active | Not Active | Not Active | Not Active | Not Active | Not Active | Not Active | Not Active | Not Active | Not Active | Not Active | – | – | –
C[C@]12CC[C@H]3[C@@H](CCC4=CC(=O)CC[C@@]43C)[C@@H]1CC[C@@H]2O [TESTOSTERONE] | Not Active | Not Active | Not Active | Not Active | Not Active | Not Active | Not Active | Not Active | Not Active | Not Active | – | – | – | – | – | – | –
C[C@@H]1C[C@H]2[C@@H]3CCC4=CC(=O)C=C[C@]4(C)C3=CC[C@]2(C)[C@H]1C(=O)CN1CCN(c2cc(N3CCCC3)nc(N3CCCC3)n2)CC1 [TIRILAZAD] | – | Not Active | Not Active | Not Active | Not Active | Not Active | Not Active | – | Not Active | Not Active | – | – | – | – | 5.95 | 4.64 | 4.81
NC[C@H]1O[C@H](O[C@H]2[C@H](O)[C@@H](O[C@H]3O[C@H](CO)[C@@H](O)[C@H](N)[C@H]3O)[C@H](N)C[C@@H]2N)[C@H](N)C[C@@H]1O [TOBRAMYCIN] | Not Active | Not Active | Not Active | Not Active | Not Active | Not Active | Not Active | Not Active | Not Active | Not Active | – | – | – | – | – | – | –
CN[C@@H]1[C@H](O)[C@H](NC)[C@H]2O[C@@]3(O)C(=O)C[C@@H](C)O[C@H]3O[C@@H]2[C@H]1O [SPECTINOMYCIN] | Not Active | Not Active | Not Active | Not Active | Not Active | Not Active | Not Active | Not Active | Not Active | Not Active | – | – | – | – | – | – | –
CO[C@H]1C[C@@H]2CC[C@@H](C)[C@@](O)(O2)C(=O)C(=O)N2CCCC[C@H]2C(=O)O[C@H]([C@H](C)C[C@@H]2CC[C@@H](O)[C@H](OC)C2)CC(=O)[C@H](C)/C=C(\C)[C@@H](O)[C@@H](OC)C(=O)[C@H](C)C[C@H](C)/C=C/C=C/C=C/1C [SIROLIMUS] | Not Active | Not Active | Not Active | Not Active | Not Active | Not Active | Not Active | Not Active | Not Active | Not Active | – | – | – | – | – | – | –
O=P(O)(O)C(O)(Cc1cccnc1)P(=O)(O)O [RISEDRONIC ACID] | Not Active | Not Active | Not Active | Not Active | Not Active | Not Active | Not Active | Not Active | Not Active | Not Active | – | – | – | – | – | – | –
